From BigSolDB 2.1

Oc1ccc(/C=C/c2cc(O)cc(O)c2)cc1
solubility (mole fraction)
Conditions	288.15 K	293.15 K	298.15 K	303.15 K	308.15 K	313.15 K
in transcutol	0.148	0.15	0.153	0.156	0.159	0.161
in water	1.29e-06	1.91e-06	2.78e-06	4e-06	5.74e-06	8.03e-06
